# US20140005163A1 (NOVARTIS AG, priority 2010, published 2014)
# Values joined by “and” are separate entries in the source; they are usually repeats but may differ in a detail not shown here. Equal values may be shown once.
# Test system: not listed separately
# Assay: Cellular CaCo2 permeability assay from apical to basal (A-B)
# Format: in vitro ADME
# Details: human, Caco-2, read-out: Pe A-B (permeability)
# From the text: The permeability in 10^−6 cm/s of compounds of formula (I) have been confirmed for selected example using a cellular CaCo2 permeability assay from apical to basal (A-B): […]
row,Papp A→B,Compound
1,29.1 ×10⁻⁶ cm/s,"CNc1ncc(-c2ccc3ncc4c(c3c2)n(-c2cn(C)nc2C)c(=O)n4C)cc1Cl [Example 146.1, 8-(5-Chloro-6-methylamino-pyridin-3-yl)-1-(1,3-dimethyl-1H-pyrazol-4-yl)-3-methyl-1,3-dihydro-imidazo[4,5-c]quinolin-2-one]"
2,13.9 ×10⁻⁶ cm/s,"CNc1cc(-c2ccc3ncc4c(c3c2)n(-c2cn(C)nc2C)c(=O)n4C)cnc1COC [Example 159, 1-(1,3-Dimethyl-1H-pyrazol-4-yl)-8-(6-methoxymethyl-5-methylamino-pyridin-3-yl)-3-methyl-1,3-dihydro-imidazo[4,5-c]quinolin-2-one]"
3,33.5 ×10⁻⁶ cm/s,"COCc1cncc(-c2ccc3ncc4c(c3c2)n(-c2cn(C)nc2Cl)c(=O)n4C)c1 [Example 54.2, 1-(3-Chloro-1-methyl-1H-pyrazol-4-yl)-8-(5-methoxymethyl-pyridin-3-yl)-3-methyl-1,3-dihydro-imidazo[4,5-c]quinolin-2-one]"
4,17 ×10⁻⁶ cm/s,"CCOc1ccc(-c2ccc3ncc4c(c3c2)n(-c2cn(CC(=O)N(C)CC)nc2C)c(=O)n4C)cn1 [Example 136, 2-{4-[8-(6-Ethoxy-pyridin-3-yl)-3-methyl-2-oxo-2,3-dihydro-imidazo[4,5-c]quinolin-1-yl]-3-methyl-pyrazol-1-yl}-N-ethyl-N-methyl-acetamide]"
5,5.9 ×10⁻⁶ cm/s,"Cc1nn(C(C)C)cc1-n1c(=O)n(C)c2cnc3ccc(-c4cncc(C(C)(C)O)c4)cc3c21 [Example 215.1, 8-[5-(1-Hydroxy-1-methyl-ethyl)-pyridin-3-yl]-1-(1-isopropyl-3-methyl-1H-pyrazol-4-yl)-3-methyl-1,3-dihydro-imidazo[4,5-c]quinolin-2-one]"
6,35.5 ×10⁻⁶ cm/s,"CCn1cc(-n2c(=O)n(C)c3cnc4ccc(-c5cnc(OC)nc5OC)cc4c32)c(C)n1 [Example 234.1, 8-(2,4-Dimethoxy-pyrimidin-5-yl)-1-(1-ethyl-3-methyl-1H-pyrazol-4-yl)-3-methyl-1,3-dihydro-imidazo[4,5-c]quinolin-2-one]"
7,15.8 ×10⁻⁶ cm/s,"CCOc1cc(-c2ccc3ncc4c(c3c2)n(-c2cn(C)nc2C)c(=O)n4C)cnc1COC [Example 197.1, 1-(1,3-Dimethyl-1H-pyrazol-4-yl)-8-(5-ethoxy-6-methoxymethyl-pyridin-3-yl)-3-methyl-1,3-dihydro-imidazo[4,5-c]quinolin-2-one]"

# Target: T1, PI3K gamma (Homo sapiens, UniProt P48736)
# T1 construct: His tag (C); made in house; host or cells: baculovirus (pVL1393); Tn5 or TiniPro insect cells; construct from Roger Williams lab, MRC LMB
# Assay: PI3K gamma kinase assay (Kinase-Glo luminescence)
# Format: biochemical
# Details: not given
# In short: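 Luminescent ATP-depletion (Kinase-Glo) assay with 150 nM PI3Kγ, 1 μM ATP and 10 μg/mL phosphatidylinositol in 10 mM Tris-HCl pH 7.5, 3 mM MgCl2, 50 mM NaCl, 0.05% CHAPS, 1 mM DTT; 120 min at room temperature. Eight-point dilutions; IC50 by four-parameter logistic fit.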
# T1 sequence (P48736 144-1102 limits assumed): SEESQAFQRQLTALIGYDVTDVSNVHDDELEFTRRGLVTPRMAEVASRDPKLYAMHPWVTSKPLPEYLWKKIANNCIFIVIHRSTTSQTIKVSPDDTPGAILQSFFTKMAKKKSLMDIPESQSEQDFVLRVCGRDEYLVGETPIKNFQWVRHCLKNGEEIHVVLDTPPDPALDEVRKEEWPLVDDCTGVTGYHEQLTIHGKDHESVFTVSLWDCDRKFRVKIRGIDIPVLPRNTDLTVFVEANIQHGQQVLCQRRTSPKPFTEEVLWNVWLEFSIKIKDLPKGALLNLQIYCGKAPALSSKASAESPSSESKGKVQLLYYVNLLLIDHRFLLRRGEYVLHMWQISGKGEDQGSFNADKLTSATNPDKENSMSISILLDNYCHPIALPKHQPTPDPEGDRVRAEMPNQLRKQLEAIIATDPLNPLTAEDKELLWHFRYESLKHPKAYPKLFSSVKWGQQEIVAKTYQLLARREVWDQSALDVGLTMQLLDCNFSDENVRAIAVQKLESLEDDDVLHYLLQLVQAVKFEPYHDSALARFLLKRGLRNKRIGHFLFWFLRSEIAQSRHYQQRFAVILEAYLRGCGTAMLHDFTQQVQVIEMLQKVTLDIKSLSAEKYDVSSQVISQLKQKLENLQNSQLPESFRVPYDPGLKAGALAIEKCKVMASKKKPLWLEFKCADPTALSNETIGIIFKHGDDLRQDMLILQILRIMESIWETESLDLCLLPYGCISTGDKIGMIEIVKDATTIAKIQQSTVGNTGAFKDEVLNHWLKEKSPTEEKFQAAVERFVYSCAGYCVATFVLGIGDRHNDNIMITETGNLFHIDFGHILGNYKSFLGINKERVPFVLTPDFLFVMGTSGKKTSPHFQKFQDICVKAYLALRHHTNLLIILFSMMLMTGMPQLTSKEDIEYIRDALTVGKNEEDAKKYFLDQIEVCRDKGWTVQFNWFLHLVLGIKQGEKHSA
row,Compound,IC50
1,"Cc1nn(C(C)C)cc1-n1c(=O)n(C)c2cnc3ccc(-c4ccc(N5CCC5)nc4)cc3c21 [Example 5.2, 8-(6-Azetidin-1-yl-pyridin-3-yl)-1-(1-isopropyl-3-methyl-1H-pyrazol-4-yl)-3-methyl-1,3-dihydro-imidazo[4,5-c]quinolin-2-one]",0.227 µM
2,"Cc1nn(CC(=O)N(C)C)cc1-n1c(=O)n(C)c2cnc3ccc(-c4ccc(-n5cccn5)cc4)cc3c21 [Example 51.2, N,N-Dimethyl-2-{3-methyl-4-[3-methyl-2-oxo-8-(4-pyrazol-1-yl-phenyl)-2,3-dihydro-imidazo[4,5-c]quinolin-1-yl]-pyrazol-1-yl}-acetamide]",0.138 µM
3,"COCCOc1cncc(-c2ccc3ncc4c(c3c2)n(-c2cn(C)nc2C)c(=O)n4C)c1 [Example 59.1, 1-(1,3-Dimethyl-1H-pyrazol-4-yl)-8-[5-(2-methoxy-ethoxy)-pyridin-3-yl]-3-methyl-1,3-dihydro-imidazo[4,5-c]quinolin-2-one]",0.179 µM
4,"CCn1cc(-n2c(=O)n(C)c3cnc4ccc(-c5cncc(OC(C)C)c5)cc4c32)c(C)n1 [Example 58.4, 1-(1-Ethyl-3-methyl-1H-pyrazol-4-yl)-8-(5-isopropoxy-pyridin-3-yl)-3-methyl-1,3-dihydro-imidazo[4,5-c]quinolin-2-one]",0.253 µM
5,"CCn1cc(-n2c(=O)n(C)c3cnc4ccc(-c5cnc(OC)nc5)cc4c32)c(C)n1 [Example 17.1, 1-(1-Ethyl-3-methyl-1H-pyrazol-4-yl)-8-(2-methoxy-pyrimidin-5-yl)-3-methyl-1,3-dihydro-imidazo[4,5-c]quinolin-2-one]",0.386 µM
6,"Cc1nn(C)c(C)c1-n1c(=O)n(C)c2cnc3ccc(-c4cccc(O)c4)cc3c21 [Example 32.2, 8-(3-Hydroxy-phenyl)-3-methyl-1-(1,3,5-trimethyl-1H-pyrazol-4-yl)-1,3-dihydro-imidazo[4,5-c]quinolin-2-one]",0.16 µM
7,"Cc1nn(C(C)C)cc1-n1c(=O)n(C)c2cnc3ccc(-c4ccc(CO)nc4)cc3c21 [Example 16.3, 8-(6-hydroxymethyl-pyridin-3-yl)-1-(1-isopropyl-3-methyl-1H-pyrazol-4-yl)-3-methyl-1,3-dihydro-imidazo[4,5-c]quinolin-2-one]",0.408 µM and 0.359 µM
8,"COc1ncc(-c2ccc3ncc4c(c3c2)n(-c2cn(C)nc2C)c(=O)n4C)cn1 [Example 17.2, 1-(1,3-Dimethyl-1H-pyrazol-4-yl)-8-(2-methoxy-pyrimidin-5-yl)-3-methyl-1,3-dihydro-imidazo[4,5-c]quinolin-2-one]",0.873 µM
9,"CNC(=O)c1ccc(-c2ccc3ncc4c(c3c2)n(-c2cn(C)nc2C)c(=O)n4C)cn1 [Example 15.1, 5-[1-(1,3-Dimethyl-1H-pyrazol-4-yl)-3-methyl-2-oxo-2,3-dihydro-1H-imidazo[4,5-c]quinolin-8-yl]-pyridine-2-carboxylic acid methylamide]",0.528 µM
10,"CCOc1ncc(-c2ccc3ncc4c(c3c2)n(-c2cn(C)nc2C)c(=O)n4C)cn1 [Example 52, 1-(1,3-Dimethyl-1H-pyrazol-4-yl)-8-(2-ethoxy-pyrimidin-5-yl)-3-methyl-1,3-dihydro-imidazo[4,5-c]quinolin-2-one]",0.597 µM
11,"CCn1cc(-n2c(=O)n(C)c3cnc4ccc(-c5ccc(N(C)C)nc5)cc4c32)c(C)n1 [Example 4.2, 8-(6-Dimethylamino-pyridin-3-yl)-1-(1-ethyl-3-methyl-1H-pyrazol-4-yl)-3-methyl-1,3-dihydro-imidazo[4,5-c]quinolin-2-one]",0.242 µM
12,"Cc1ccc(-c2ccc3ncc4c(c3c2)n(-c2cn(C)nc2C)c(=O)n4C)cn1 [Example 7.2, 1-(1,3-Dimethyl-1H-pyrazol-4-yl)-3-methyl-8-(6-methyl-pyridin-3-yl)-1,3-dihydro-imidazo[4,5-c]quinolin-2-one]",0.191 µM
13,"CCOc1ccc(-c2ccc3ncc4c(c3c2)n(-c2cn(CC(=O)N3CCOCC3)nc2C)c(=O)n4C)cn1 [Example 3.10, 8-(6-Ethoxy-pyridin-3-yl)-3-methyl-1-[3-methyl-1-(2-morpholin-4-yl-2-oxo-ethyl)-1H-pyrazol-4-yl]-1,3-dihydro-imidazo[4,5-c]quinolin-2-one]",0.867 µM
14,"COc1ccc(-c2ccc3ncc4c(c3c2)n(-c2c(C)nn(C)c2C)c(=O)n4C)cn1 [Example 2.4, 8-(6-Methoxy-pyridin-3-yl)-3-methyl-1-(1,3,5-trimethyl-1H-pyrazol-4-yl)-1,3-dihydro-imidazo[4,5-c]quinolin-2-one]",0.199 µM
15,"CNC(=O)c1ccc(-c2ccc3ncc4c(c3c2)n(-c2cn(C)nc2C)c(=O)n4C)cc1 [Example 43.1, 4-[1-(1,3-Dimethyl-1H-pyrazol-4-yl)-3-methyl-2-oxo-2,3-dihydro-1H-imidazo[4,5-c]quinolin-8-yl]-N-methyl-benzamide]",0.15 µM
16,"COCCOc1ccc(-c2ccc3ncc4c(c3c2)n(-c2cn(C)nc2C)c(=O)n4C)cc1OC [Example 30.1, 1-(1,3-Dimethyl-1H-pyrazol-4-yl)-8-[3-methoxy-4-(2-methoxy-ethoxy)-phenyl]-3-methyl-1,3-dihydro-imidazo[4,5-c]quinolin-2-one]",0.178 µM
17,"CCOc1ccc(-c2ccc3ncc4c(c3c2)n(-c2c(C)nn(C)c2C)c(=O)n4C)cc1OC [Example 29.2, 8-(4-Ethoxy-3-methoxy-phenyl)-3-methyl-1-(1,3,5-trimethyl-1H-pyrazol-4-yl)-1,3-dihydro-midazo[4,5-c]quinolin-2-one]",0.145 µM
18,"Cc1nn(C)c(C)c1-n1c(=O)n(C)c2cnc3ccc(-c4ccc(N(C)C)nc4)cc3c21 [Example 4.3, 8-(6-Dimethylamino-pyridin-3-yl)-3-methyl-1-(1,3,5-trimethyl-1H-pyrazol-4-yl)-1,3-dihydro-imidazo[4,5-c]quinolin-2-one]",0.142 µM

# Results, then the compound that gave them:
row,IC50,Compound
1,0.191 µM,"COc1ccc(-c2ccc3ncc4c(c3c2)n(-c2cn(CCO)nc2C)c(=O)n4C)cn1 [Example 103.1, 1-[1-(2-Hydroxy-ethyl)-3-methyl-1H-pyrazol-4-yl]-8-(6-methoxy-pyridin-3-yl)-3-methyl-1,3-dihydro-imidazo[4,5-c]quinolin-2-one]"
2,0.25 µM,"CCOc1cc(-c2ccc3ncc4c(c3c2)n(-c2cn(C)nc2C)c(=O)n4C)ccn1 [Example 91, 1-(1,3-Dimethyl-1H-pyrazol-4-yl)-8-(2-ethoxy-pyridin-4-yl)-3-methyl-1,3-dihydro-imidazo[4,5-c]quinolin-2-one]"
3,0.088 µM,"COc1ccc(-c2ccc3ncc4c(c3n2)n(-c2cc(C)nn2C)c(=O)n4C)cc1OC [Example 253, 8-(3,4-Dimethoxy-phenyl)-1-(2,5-dimethyl-2H-pyrazol-3-yl)-3-methyl-1,3-dihydro-1,3,5,9-tetraaza-cyclopenta[a]naphthalen-2-one]"
4,0.646 µM,"COCCn1c(=O)n(C)c2ncc(-c3ccc4ncc5c(c4c3)n(-c3cn(C)nc3C)c(=O)n5C)cc21 [Example 69, 1-(1,3-Dimethyl-1H-pyrazol-4-yl)-8-[1-(2-methoxy-ethyl)-3-methyl-2-oxo-2,3-dihydro-1H-imidazo[4,5-b]pyridin-6-yl]-3-methyl-1,3-dihydro-imidazo[4,5-c]quinolin-2-one]"
5,0.212 µM,"CCn1c(=O)n(-c2cn(C)nc2C)c2c3nc(-c4ccc(OC)c(OC)c4)ccc3ncc21 [Example 251, 8-(3,4-Dimethoxy-phenyl)-1-(1,3-dimethyl-1H-pyrazol-4-yl)-3-ethyl-1,3-dihydro-1,3,5,9-tetraaza-cyclopenta[a]naphthalen-2-one]"
